Laboratory results taken from patent publication US7632861B2, “Substituted heterocyclic ethers and their use in CNS disorders” (Bristol-Myers Squibb Company, priority 2007, dated 2009).

What was measured:
NK-1 = target: T1, NK-1 (Homo sapiens, UniProt P25103); test: NK1 radioligand binding assay ([125I]Substance P, U373 cell membranes); conditions: 1 hour at room temperature
T1 construct: endogenous in cells; host or cells: U373 cells (crude membranes)
Experimental: (§1) NK-1 Binding assay. Crude membrane suspensions were prepared for the NK1 and SERT radioligand binding assays from U373 cells or recombinant HEK-293 cells expressing hSERT, respectively. Cells were harvested from T-175 flasks as follows. The medium is removed from the flasks and the cells rinsed with HBSS without Ca and without Mg. The cells are then incubated for 5-10 minutes in 10 mM Tris-Cl, pH 7.5, 5 mM EDTA before the cells are lifted with a combination of pipetting and scraping, as needed. To prepare membranes, the cell suspension is collected into centrifuge bottles and homogenized for 30 seconds with a Polytron homogenizer. The suspension is centrifuged for 30 min @ 32,000×g, 4° C., then the supernatant is decanted and the pellet resuspended and homogenized in 50 mM Tris-Cl, pH 7.5, 1 mM EDTA for 10 seconds. The suspension is then centrifuged again for 30 min @ 32,000×g, 4° C. The supernatant is decanted and the pellet resuspended in 50 mM Tris-Cl, pH 7.5, 1 mM EDTA and briefly homogenized. A Bradford assay (Bio-rad) is performed and the membrane preparation diluted to 2 mg/ml with 50 mM Tris-Cl, pH 7.5, 1 mM EDTA. Aliquots are prepared, and then frozen and stored at −80° C.
NK1 radioligand binding assay. Compounds are dissolved in 100% DMSO at a concentration 100× the desired highest assay concentration, serially diluted 1:3 in 100% DMSO, and 0.6 ul/well of each solution is dispensed to a Nunc polypropylene, round bottom, 384 well plate. 100% inhibition is defined with 0.6 ul/well of 1 mM L-733,060 (Sigma L-137) dissolved in DMSO. 30 ul/well of a 2×U373 membrane preparation (267 ug/ml in 100 mM Tris-Cl, pH 7.5, 6 mM MgCl2, 0.2% (v/v) Sigma mammalian protease inhibitor cocktail (Sigma P-8340), and 4 ug/ml chymostatin, Sigma C-7268) and 30 ul/well of a 2×radioligand solution (400 pM [^125I]Substance P (Perkin Elmer NEX-190) in 1% (w/v) BSA (Sigma A-2153), 0.1 mg/ml bacitracin, Sigma B-0125) are added to the well and the reaction incubated for 1 hour at room temperature. The contents of the assay plate are then transferred to a Millipore MultiscreenHTS GF/B filter plate which has been pretreated with 0.5% PEI for at least one hour. The plate is vacuum filtered and washed with 7 washes of 100 ul/well of 20 mM Tris-Cl, pH 7.5, 0.5% (w/v) BSA chilled to 4° C. The filtration and washing is completed in less than 90 s. The plates are air-dried overnight, 12 ul/well of MicroScint scintillation fluid added, and the plates counted in a Trilux.
(§2) Data analysis. The raw data are normalized to percent inhibition using control wells defining 0% (DMSO only) and 100% (selective inhibitor) inhibition which are run on each plate. Each plate is run in triplicate, and the concentration response curve thus generated is fit using the four-parameter dose response equation, Y=Bottom+(Top-Bottom)/(1+10^((LogIC50-X)*HillSlope)) in order to determine the IC50 value for each compound. The radioligand concentration chosen for each assay corresponds to the Kd concentration determined through saturation binding analysis for each assay.

hSERT = target: T2, hSERT (Homo sapiens, UniProt P31645); test: SERT radioligand binding assay ([125I]RTI-55, HEK-hSERT membranes); conditions: [125I]RTI-55, 1 hour at room temperature
T2 construct: expressed in transfected cells; host or cells: HEK-293 cells (crude membranes)
T2 sequence (P31645 whole entry): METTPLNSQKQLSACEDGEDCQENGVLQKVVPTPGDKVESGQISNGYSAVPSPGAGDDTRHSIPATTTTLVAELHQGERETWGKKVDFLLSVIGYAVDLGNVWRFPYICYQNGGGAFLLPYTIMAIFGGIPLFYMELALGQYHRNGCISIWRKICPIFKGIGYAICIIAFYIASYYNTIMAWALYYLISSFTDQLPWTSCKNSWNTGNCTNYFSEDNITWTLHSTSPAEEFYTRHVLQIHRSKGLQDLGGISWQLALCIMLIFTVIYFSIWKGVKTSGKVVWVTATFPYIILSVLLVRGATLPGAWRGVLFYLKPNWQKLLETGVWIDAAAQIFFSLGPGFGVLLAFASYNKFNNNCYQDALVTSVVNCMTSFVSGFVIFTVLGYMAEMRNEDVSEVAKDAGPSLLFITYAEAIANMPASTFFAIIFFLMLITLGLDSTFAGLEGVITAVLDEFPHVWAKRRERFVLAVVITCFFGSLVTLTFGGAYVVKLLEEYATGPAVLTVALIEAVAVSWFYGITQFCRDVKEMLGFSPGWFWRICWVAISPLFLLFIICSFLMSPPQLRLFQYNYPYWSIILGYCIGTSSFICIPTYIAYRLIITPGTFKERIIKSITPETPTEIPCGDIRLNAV
Experimental: as §1
SERT radioligand binding assay. Compounds are dissolved in 100% DMSO at a concentration 100× the desired highest assay concentration, serially diluted 1:3 in 100% DMSO, and 0.4 ul/well of each solution is dispensed to a Nunc polypropylene, round bottom, 384 well plate. 100% inhibition is defined with 0.4 ul/well of 1 mM fluoxetine (Sigma F-132) dissolved in DMSO. 20 ul/well of a 2×HEK-hSERT membrane preparation (15 ug/ml in 50 mM Tris-Cl, pH 7.5, 120 mM NaCl, 5 mM KCl) and 20 ul/well of a 2×radioligand solution (520 pM [^125I]RTI-55 (Perkin-Elmer NEX-272) in 50 mM Tris-Cl, pH 7.5, 120 mM NaCl, 5 mM KCl) are added to each well and the reaction incubated for 1 hour at room temperature. The contents of the assay plate are then transferred to a Millipore MultiscreenHTS GF/B filter plate which has been pretreated with 0.5% PEI for at least one hour. The plate is vacuum filtered and washed with 7 washes of 100 ul/well of 50 mM Tris-Cl, pH 7.5, 120 mM NaCl, 5 mM KCl chilled to 4° C. The filtration and washing is completed in less than 90 s. The plates are air-dried overnight, 12 ul/well of MicroScint scintillation fluid added, and the plates counted in a Trilux.
as §2

T1 sequence (P25103 whole entry): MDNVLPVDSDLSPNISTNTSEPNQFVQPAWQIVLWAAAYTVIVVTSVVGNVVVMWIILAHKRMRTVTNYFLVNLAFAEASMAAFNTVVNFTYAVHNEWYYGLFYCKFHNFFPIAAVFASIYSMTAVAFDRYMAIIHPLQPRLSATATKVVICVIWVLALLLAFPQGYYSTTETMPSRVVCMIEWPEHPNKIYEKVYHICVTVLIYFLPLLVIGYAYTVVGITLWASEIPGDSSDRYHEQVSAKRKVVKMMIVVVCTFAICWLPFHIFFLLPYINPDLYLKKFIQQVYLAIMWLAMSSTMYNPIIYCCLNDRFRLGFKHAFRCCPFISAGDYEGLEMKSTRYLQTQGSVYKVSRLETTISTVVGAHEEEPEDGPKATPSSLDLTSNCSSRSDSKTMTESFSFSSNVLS

SMILES	IC50 (NK-1)	IC50 (hSERT)
COc1ccc(-c2cc(COCC3(CCN)OCc4ccccc43)cc(C(F)(F)F)c2)cc1F (stereo not drawn) [Example 12]	0.01 to 100 nM	> 300 nM
NCCC1(COCc2cc(-c3ccc(F)cc3)cc(C(F)(F)F)c2)OCc2ccccc21 (stereo not drawn) [Example 9]	0.01 to 100 nM	100 to 300 nM
CC(OCC1(CCN(C)C)OCc2ccccc21)c1cc(Br)cc(C(F)(F)F)c1 (stereo not drawn) [Example 27]	0.01 to 100 nM	100 to 300 nM
N#Cc1ccc2c(c1)COC2(CCN)COCc1cc(Br)cc(C(F)(F)F)c1 (stereo not drawn) [Example 24]	0.01 to 100 nM	0.01 to 100 nM
NCCC1(COCc2cc(-c3cccc(Cl)c3)cc(C(F)(F)F)c2)OCc2ccccc21 (stereo not drawn) [Example 13]	100 to 300 nM	> 300 nM
CN(C)CCC1(COCc2cc(C(F)(F)F)cc(C(F)(F)F)c2)OCCc2ccccc21 (stereo not drawn) [Example 40, 2-(1-((3,5-Bis(trifluoromethyl)benzyloxy)methyl)isochroman-1-yl)-N,N-dimethylethanamine]	0.01 to 100 nM	0.01 to 100 nM
CN(C)CCCC1(COCc2cc(C(F)(F)F)cc(C(F)(F)F)c2)OCc2ccccc21 (stereo not drawn) [Example 38, 3-(1-((3,5-is(trifluoromethyl)benzyloxy)methyl)-1,3-dihydroisobenzofuran-1-yl)-N,N-dimethylpropan-1-amine]	0.01 to 100 nM	> 300 nM
N#Cc1ccc(-c2cc(Cl)cc(COCC3(CCN)OCc4ccccc43)c2)cc1 (stereo not drawn) [Example 34]	0.01 to 100 nM	0.01 to 100 nM
NCCC1(COCc2cc(Cl)cc(Br)c2)OCc2ccccc21 (stereo not drawn) [Example 32]	0.01 to 100 nM	0.01 to 100 nM
CC(OCC1(CCN)OCc2ccccc21)c1cc(Br)cc(C(F)(F)F)c1 (stereo not drawn) [Example 28]	0.01 to 100 nM	> 300 nM
NCCC1(COCc2cc(C(F)(F)F)cc(C(F)(F)F)c2)OCc2ccccc21 (stereo not drawn) [Example 35, 2-(1-((3,5-Bis(trifluoromethyl)benzyloxy)methyl)-1,3-dihydroisobenzofuran-1-yl)ethanamine]	0.01 to 100 nM	100 to 300 nM
NCCCC1(COCc2cc(C(F)(F)F)cc(C(F)(F)F)c2)OCc2ccccc21 (stereo not drawn) [Example 37, 3-(1-((3,5-Bis(trifluoromethyl)benzyloxy)methyl)-1,3-dihydroisobenzofuran-1-yl)propan-1-amine]	0.01 to 100 nM	0.01 to 100 nM
CN(C)CCC1(COCc2cc(C(F)(F)F)cc(C(F)(F)F)c2)OCc2cc(C#N)ccc21 (stereo not drawn) [Example 21]	0.01 to 100 nM	> 300 nM
CN(C)CCC1(COCc2cc(-c3ccncc3)cc(C(F)(F)F)c2)OCc2ccccc21 (stereo not drawn) [Example 19]	0.01 to 100 nM	0.01 to 100 nM
NCCC1(COCc2cc(-c3ccc(F)cc3F)cc(C(F)(F)F)c2)OCc2ccccc21 (stereo not drawn) [Example 15]	0.01 to 100 nM	100 to 300 nM
N#Cc1ccc2c(c1)COC2(CCN)COCc1cc(C(F)(F)F)cc(C(F)(F)F)c1 (stereo not drawn) [Example 23]	0.01 to 100 nM	100 to 300 nM
NCCC1(COCc2cc(-c3cccc(F)c3)cc(C(F)(F)F)c2)OCc2ccccc21 (stereo not drawn) [Example 10]	0.01 to 100 nM	100 to 300 nM
N#Cc1ccc(-c2cc(COCC3(CCN)OCc4ccccc43)cc(C(F)(F)F)c2)cc1 (stereo not drawn) [Example 2, 3′-(((1-(2-aminoethyl)-1,3-dihydroisobenzofuran-1-yl)methoxy)methyl)-5′-(trifluoromethyl)biphenyl-4-carbonitrile]	0.01 to 100 nM	100 to 300 nM

SMILES	IC50 (NK-1)	IC50 (hSERT)
NCCC1(COCc2cc(-c3ccc(F)c(F)c3)cc(C(F)(F)F)c2)OCc2ccccc21 (stereo not drawn) [Example 11]	0.01 to 100 nM	100 to 300 nM
CN(C)CCC1(COCc2cc(-c3ccc(C#N)cc3)cc(C(F)(F)F)c2)OCc2ccccc21 (stereo not drawn) [Example 18]	0.01 to 100 nM	100 to 300 nM
CN(C)CCC1(COCc2cc(C(F)(F)F)cc(C(F)(F)F)c2)OCc2ccccc21 (stereo not drawn) [Example 36, 2-(1-((3,5-Bis(trifluoromethyl)benzyloxy)methyl)-1,3-dihydroisobenzofuran-1-yl)-N,N-dimethylethanamine]	0.01 to 100 nM	0.01 to 100 nM
NCCC1(COCc2cc(-c3ccncc3)cc(C(F)(F)F)c2)OCc2ccccc21 (stereo not drawn) [Example 3]	0.01 to 100 nM	100 to 300 nM
CN(C)CCC1(COCc2cc(N3CCOCC3)cc(C(F)(F)F)c2)OCc2ccccc21 (stereo not drawn) [Example 20, N,N-dimethyl-2-(1-((3-morpholino-5-(trifluoromethyl)benzyloxy)methyl)-1,3-dihydroisobenzofuran-1-yl)ethanamine]	0.01 to 100 nM	0.01 to 100 nM
NCCC1(COCc2cc(-c3ccccc3C(N)=O)cc(C(F)(F)F)c2)OCc2ccccc21 (stereo not drawn) [Example 5]	> 300 nM	> 300 nM
N#Cc1ccccc1-c1cc(COCC2(CCN)OCc3ccccc32)cc(C(F)(F)F)c1 (stereo not drawn) [Example 6]	100 to 300 nM	100 to 300 nM
CN(C)CCC1(COCc2cc(Cl)cc(Br)c2)OCc2ccccc21 (stereo not drawn) [Example 31]	100 to 300 nM	0.01 to 100 nM
CN(C)CCC1(COCc2cc(Br)cc(C(F)(F)F)c2)OCc2ccccc21 (stereo not drawn) [Example 17, 2-(1-((3-bromo-5-(trifluoromethyl)benzyloxy)methyl)-1,3-dihydroisobenzofuran-1-yl)-N,N-dimethylethanamine]	0.01 to 100 nM	0.01 to 100 nM
NCCC1(COCc2cc(-c3ccc(Cl)cc3)cc(C(F)(F)F)c2)OCc2ccccc21 (stereo not drawn) [Example 8]	0.01 to 100 nM	100 to 300 nM
NCCC1(COCc2cc(C(F)(F)F)cc(C(F)(F)F)c2)OCCc2ccccc21 (stereo not drawn) [Example 39, 2-(1-((3,5-Bis(trifluoromethyl)benzyloxy)methyl)isochroman-1-yl)ethanamine]	0.01 to 100 nM	0.01 to 100 nM
CN(C)CCC1(COCc2cc(Cl)cc(-c3ccc(C#N)cc3)c2)OCc2ccccc21 (stereo not drawn) [Example 33]	0.01 to 100 nM	0.01 to 100 nM
NCCC1(COCc2cc(Br)cc(C(F)(F)F)c2)OCc2ccccc21 (stereo not drawn) [Example 1, 2-(1-((3-bromo-5-(trifluoromethyl)benzyloxy)methyl)-1,3-dihydroisobenzofuran-1-yl)ethanamine]	0.01 to 100 nM	0.01 to 100 nM
CN(C)CCC1(COCc2cc(Br)cc(C(F)(F)F)c2)OCc2cc(C#N)ccc21 (stereo not drawn) [Example 22]	0.01 to 100 nM	> 300 nM
COc1ccc(-c2cc(COCC3(CCN)OCc4ccccc43)cc(C(F)(F)F)c2)cc1 (stereo not drawn) [Example 7]	0.01 to 100 nM	> 300 nM
N#Cc1cccc(-c2cc(COCC3(CCN)OCc4ccccc43)cc(C(F)(F)F)c2)c1 (stereo not drawn) [Example 4]	100 to 300 nM	100 to 300 nM
CN(C)CCC1(COCc2cc(-c3ccncc3)cc(C(F)(F)F)c2)OCc2cc(C#N)ccc21 (stereo not drawn) [Example 26]	100 to 300 nM	> 300 nM
NCCC1(COCc2cc(N3CCOCC3)cc(C(F)(F)F)c2)OCc2ccccc21 (stereo not drawn) [Example 16, 2-(1-((3-morpholino-5-(trifluoromethyl)benzyloxy)methyl)-1,3-dihydroisobenzofuran-1-yl)ethanamine]	0.01 to 100 nM	> 300 nM
